Results from PMC11279551, “Pharmacokinetics and Enterohepatic Circulation of 2-(Quinoline-8-carboxamido)benzoic Acid (2-QBA) in Mice” (Pharmaceutics, 2024).

Experiments:
[1] = Stability of 2-QBA in mouse plasma (QC samples); type: in vitro ADME; details: for Freeze-thaw cycle stability, Accuracy / Bench-top stability, Accuracy: mouse plasma; for Freeze-thaw cycle stability, Accuracy: 3 cycles; for Bench-top stability, Accuracy: 25 °C for 6 h; for Autosampler stability, Accuracy: prepared plasma samples, 6 °C for 24 h
Protocol: The stability of 2-QBA in mouse plasma was tested in terms of its benchtop stability, freeze–thaw stability, and autosampler stability. In all stability tests, three sets of QC samples (3, 100, and 400 ng/mL) were prepared.
The benchtop stability was tested by incubating the samples at 25 °C for 6 h. For the freeze–thaw stability, the samples were placed at −80 °C for over 12 h for freezing and thawed at 25 °C for 6 h as one cycle; the same protocol was repeated for three cycles. Finally, the autosampler stability was tested by placing the prepared QC samples in the autosampler at 6 °C for 24 h. After analyzing all of the stability test samples, the concentrations were calculated using freshly prepared calibration standards.

[2] = Urinary and fecal excretion of 2-QBA and 2-QBA-Glu with vehicle or AC treatment (β-glucuronidase treatment); type: in vivo; details: mice; for urinary excretion rate: PO 2 mg/kg
Protocol: In total, […] were administered 2-QBA (1 mg/kg/3 mL) via the tail vein. Two hours after the 2-QBA dosing, AC (0.8 g/kg/5 mL in distilled water) or a vehicle (5 mL/kg distilled water) was administrated via oral gavage. Each group included ten mice who were randomly divided into two groups for sparse sampling. Blood collection was performed at 0.083, 0.5, 2, and 8 h from 5 mice and at 0.25, 1, 4, and 24 h from another 5 mice, as described previously. Four mice treated with either AC (0.8 g/kg) or the vehicle 2 h after the 2-QBA IV dosing (1 mg/kg) were returned to a metabolic cage to collect the urine and feces samples. The urine and feces samples were collected for 72 h.
Next, 2-QBA was administered PO (2 mg/kg/5 mL) with or without AC (0.8 g/kg in 3 mL of DW), which was administered via oral gavage 2 h after the 2-QBA dosing. Each group included eight mice who were randomly divided into two groups for sparse sampling. Blood collection was performed at 0.25, 0.75, 2, and 8 h from 4 mice and at 0.5, 1, 4, and 24 h from another 4 mice, as described previously. Four mice treated with either AC (0.8 g/kg) or vehicle 2 h after the 2-QBA PO dosing (2 mg/kg) were returned to a metabolic cage to collect the urine and feces samples. The urine and feces samples were collected for 72 h.
Aliquots of plasma samples (30 μL) were added to 120 μL of IS solution. The mixture was vigorously vortexed for 5 min and then centrifuged at 13,000× g for 5 min. The supernatant was transferred to autosampler vials. Subsequently, a 3 μL aliquot was injected into the LC-MS/MS system. Aliquots (30 μL) of urine and 10% feces homogenate samples were added to 60 μL of 150 mM sodium acetate buffer (pH 5.0) in the presence or absence of β-glucuronidase (900 unit) at 37 °C for 2 h. […]
Then, we quantified the 2-QBA and 2-QBA-Glu from the urine and fecal samples obtained from the mice after IV or PO administration of 2-QBA. In addition, the amount of 2-QBA-Glu was calculated by subtracting the control 2-QBA from the total 2-QBA with β-glucuronidase treatment. […]

O=C(O)c1ccccc1NC(=O)c1cccc2cccnc12 [2-QBA, 2-(quinoline-8-carboxamido)benzoic acid]
Freeze-thaw cycle stability, Accuracy ([1]; nominal 100 ng/mL): 104.3%
Freeze-thaw cycle stability, Accuracy ([1]; nominal 400 ng/mL): 106.4%
Bench-top stability, Accuracy ([1]; nominal 3 ng/mL): 98.51%
Bench-top stability, Accuracy ([1]; nominal 100 ng/mL): 89.14%
Bench-top stability, Accuracy ([1]; nominal 400 ng/mL): 91.55%
Autosampler stability, Accuracy ([1]; nominal 3 ng/mL): 109.5%
Autosampler stability, Accuracy ([1]; nominal 100 ng/mL): 103.1%
Autosampler stability, Accuracy ([1]; nominal 400 ng/mL): 108.7%
dose excreted ([2]; ICR, mouse, faeces, 1 mg/kg, IV injection of 2-QBA, read-out: fecal recovery rate): < 5%
urinary excretion rate ([2]; with AC (0.8 g/kg)): 17.5 % of the administered PO dose
urinary excretion rate ([2]; without AC): 27.7 % of the administered PO dose
